Tested on: pentosidine formation
Assay: Inhibitory activity on pentosidine formation, samples incubated with BSA and arabinose
Assay type: biochemical
Settings: incubated with BSA and arabinose instead of patient plasma; for Pentosidine Formation Ratio (%) at 5 Concentration: Table 13
Experimental: Plasma was collected from hemodialysis patients prior to dialysis with the patients' consent, and the plasma was filtered and sterilized. To the plasma (450 μL) was added solutions of TM-2002 in dimethylsulfoxide (50 μL) (final concentrations: 0.8, 2.0, and 5.0 mM), and the mixtures were incubated for 1 week at 37° C. The levels of the pentosidine formation were measured.
Pentosidine was measured as follows. To each sample (50 μL) after incubation was added an equal volume of 10% trichloroacetic acid, and the mixture was subsequently centrifuged at 5,000 g for 5 minutes. After the supernatant was removed, the pellet was washed with 5% trichloroacetic acid (300 μL). The pellet was dried under reduced pressure, and subsequently hydrolyzed in a 6N HCl solution (100 μL) under a nitrogen atmosphere for 16 hours at 110° C. To the acid hydrolysate was then added 5N NaOH (100 μL) and 0.5 M phosphate buffer (pH 7.4) (200 μL); the mixture was subsequently filtered through a micropore filter with 0.5 μm pores and diluted with PBS. The concentration of the released pentosidine was measured by reverse-phase HPLC using a fluorescence detector (RF-10A, Shimadzu Corporation) (Miyata, T. et al.; Proc. Natl. Acad. Sci. USA, Vol. 93, p. 2353-2358, 1996). The effluent was monitored at the excitation/emission wavelength of 335/385 nm. Synthetic pentosidine was used as the reference material. The detection limit of pentosidine was 0.1 pmol/mg protein.
(2) Other edaravone analogues (Compounds (1) or (2)) were investigated for their inhibitory activities on pentosidine formation in the same manner as in Section (1) above, except that the samples were incubated with BSA and arabinose instead of the patient plasma. In the tables, “-” means that the test was not conducted.

| Compound | Pentosidine Formation Ratio (%) at 5 mM Drug Concentration [%] | Pentosidine Formation Ratio (%) at 5 Concentration [%] |
| --- | --- | --- |
| CC(=O)c1ccc(N2N=C(C)/C(=C3\C(=O)Nc4ccccc43)C2=O)cc1 [compound 45, 3-[1-(4-acetyl-phenyl)-3-methyl-5-oxo-1,5-dihydro-pyrazol-4-ylidene]-1,3-dihydro-indol-2-one] | 19.22 |  |
| CC1=NN(c2cccc([N+](=O)[O-])c2)C(=O)C1Sc1nnnn1-c1ccccc1 (stereo not shown) [compound 13, 5-methyl-2-(3-nitro-phenyl)-4-(1-phenyl-1H-tetrazol-5-ylsulfanyl)-2,4-dihydro-pyrazol-3-one] | 74.66 |  |
| COc1ccc(/C=C2/C(=O)N(c3ccccc3)N=C2C)c(OC)c1O [compound 59, 4-(3-hydroxy-2,4-dimethoxy-benzylidene)-5-methyl-2-phenyl-2,4-dihydro-pyrazol-3-one] | 5.3 |  |
| CC1=NN(c2cccc(Cl)c2)C(=O)/C1=N/O [compound 73, 2-(3-chloro-phenyl)-5-methyl-2H-pyrazol-3,4-dione-4-oxime] |  | 66.42 |
| CCOC(=O)c1ccc(N2N=C(C(F)(F)F)/C(=C/c3cccs3)C2=O)cc1 [compound 50, 4-(5-oxo-4-thiophen-2-ylmethylene-3-trifluoromethyl-4,5-dihydro-pyrazol-1-yl)-benzoic acid ethyl ester] | 63.17 |  |
| CCOC(=O)C1=NN(c2ccccc2)/C(=C2\C(=O)N(c3ccccc3)N=C2c2ccccc2)S1 [compound 74] |  | 87.24 |
| CC1=NN(c2ccccc2)C(=O)C1CCC(=O)O (stereo not shown) [compound 7] | 64.64 |  |
| CCc1ccc(N2N=C(C)/C(=C\c3ccc(O)cc3)C2=O)cc1 [compound 48, 2-(4-ethyl-phenyl)-4-(4-hydroxy-benzylidene)-5-methyl-2,4-dihydro-pyrazol-3-one] | 0.02 |  |
| CC1=NN(c2ccccc2Cl)C(=O)/C1=C/c1ccc(N(C)C)cc1 [compound 32, 2-(2-chloro-phenyl)-4-(4-dimethylamino-benzylidene)-5-methyl-2,4-dihydro-pyrazol-3-one] | 8.7 |  |
| CCCC1=NN(c2ccccc2)C(=O)C1CC(=O)c1ccccc1 (stereo not shown) [compound 20] | 83.12 |  |
| COc1ccc(-c2csc(SC3C(=O)N(c4ccccc4)N=C3C)n2)cc1 (stereo not shown) [compound 19] | 40.19 |  |
| CC1=NN(c2ccccc2)C(=O)C12C(c1ccccc1)C21C(=O)N(c2ccccc2)N=C1C (stereo not shown) [compound 30, 4,10-dimethyl-2,8,11-triphenyl-2,3,8,9-tetraza-dispiro[4.0.4.1]undeca-3,9-diene-1,7-dione] | 62.43 |  |
| COc1cc(/C=C2/C(=O)N(c3ccc(Cl)c(C(=O)O)c3)N=C2C)c(Cl)cc1O [compound 61, 2-chloro-5-[4-(2-chloro-4-hydroxy-5-methoxy-benzylidene)-3-methyl-5-oxo-4,5-dihydro-pyrazol-1-yl]-benzoic acid] | 46.52 |  |
| CC1=NN(c2ccc(C)c(C)c2)C(=O)/C1=C\c1ccc(O)cc1O [compound 54, 4-(2,4-dihydroxy-benzylidene)-2-(3,4-dimethyl-phenyl)-5-methyl-2,4-dihydro-pyrazol-3-one] | 73.48 |  |
| CN(C)c1ccc(/C=C2\C(=O)N(c3ccc(S(N)(=O)=O)cc3)N=C2C(F)(F)F)cc1 [compound 51, 4-[4-(4-dimethylamino-benzyliden)-5-oxo-3-trifluoromethyl-4,5-dihydro-pyrazol-1-yl]-benzenesulfonamide] | 41.68 |  |
| CC1=NN(c2cccc(C(=O)O)c2)C(=O)/C1=C\c1ccc(N2CCC(Cl)=N2)cc1 [compound 36, 3-{4-[4-(3-chloro-4,5-dihydro-pyrazol-1-yl)-benzylidene]-3-methyl-5-oxo-4,5-dihydro-pyrazol-1-yl}-benzoic acid] | 26.37 |  |

Reference: patent US20120065198A2, “Detection and Treatment of Schizophrenia” (Tokai University Educational System, priority 2007, published 2012)
